Values of other authors in patent publication US20150118313A1, “ENHANCED FOLIC ACID FLUORESCENT MATERIAL, MULTIFLUORESCENT POROUS COMPOSITIONS OF MATTER AND POTENTIAL APPLICATIONS THEREOF” (Nanologica AB, priority 2010, published 2015).
Entries after “also recorded” stand apart in the source; their conditions may differ.

Columns and labels:
[1] = weak acid, neutralized in the range of pH 5-7
[2] = aqueous solvent; solubility is dependent on pH

SMILES	pKa [1]	solubility in aqueous solution [2]
O=C(O)c1ccc(-c2c3nc(c(-c4ccc(C(=O)O)cc4)c4ccc([nH]4)c(-c4ccc(C(=O)O)cc4)c4nc(c(-c5ccc(C(=O)O)cc5)c5ccc2[nH]5)C=C4)C=C3)cc1 [TCPP, Meso-tetrakis (4-carboxyphenyl) porphyrin]	6.6	scarcely soluble; also recorded: poor solubility
Nc1nc2ncc(CNc3ccc(C(=O)N[C@@H](CCC(=O)O)C(=O)O)cc3)nc2c(=O)[nH]1 [folic acid]	–	poor solubility
